Data as given in patent US6391304B1, “Peptides derived from the ENV gene of the feline immunodeficiency virus and their applications” (Centre National de la Recherche Scientifique, priority 1997, dated 2002).
Ends that are not written are not given here.

Columns and labels:
SU2 envelope peptide = experiment: Seroconversion ELISA after the virulence test, SU2 peptide; assay type: in vivo, cats
Procedure: The cats are subjected to a virulence test, one week after the final immunization, by means of an intraperitoneal inoculation of 10 CID50 of FIV Wo isolate, one CID50 corresponding to the dose capable of infecting 50% of the cats.
(§1) The production on of antibodies is evaluated before the test by means of an ELISA using an immobilized peptide (SU2, SU5, TM2 or TM3-19) and immunoprecipitation. After the test, the seroconversion is monitored by an ELISA using immobilized envelope peptides and a recombinant FTV capsid protein.
(§2) The ELISA with the immobilized envelope peptides corresponding to the immunogenic domains SU2 and TM2 and with the immobilized recombinant p25 protein (FIV capsid protein) is carried out as described in Avraméas A. et al. (Res. Virol., 1993, 144, 209-218).
Microplates (Immunolon II, Dynatech) are coated with 0.5 μg/well for the peptides and with 0.1 μg/well for the p25 protein.
The tests are carried out in duplicate and the results are expressed as average values.
(§3) After the test, the seroconversion against the envelope peptides and the p25 protein is evaluated at serum dilutions of 1/25 and 1/100, respectively.
The absorbance values (at 405 nm) are corrected by subtraction of the absorbance values obtained by binding with an immobilized control peptide.
The tests are normalized with reference to the binding of a mixture of serum from cats infected with FIV with a peptide representing the immunodominant domain of the FIV transmembrane glycoprotein (TM2) (Avraméas A. et al., Res. Virol., 1993, 144, 209-218).

FIV Wo isolate = experiment: Viral load in the tissues by competitive RT-PCR; assay type: in vivo, cats; settings: 5 weeks after the test, FIG. 4
Description: The cats are sacrificed five weeks after the virulence test. The lymphoid organs (spleen, thymus, axial lymphatic ganglia) are recovered and frozen in liquid nitrogen, for extraction of the RNA.
Frozen spleen and thymus tissues are reduced to powder and immediately dispersed in the lysis buffer provided with the RNA extraction kit (RNeasy, Qiagene), with the aid of a tissue homogenizer (Ultra-Turrax). The frozen axillary lymphatic ganglia are dispersed directly in the lysis buffer; the RNA is then extracted using the RNeasy kit, according to the manufacturer's instructions.
The contaminant DNA is removed by hydrolysis with DNase 1 (RQ1. RNase-free DNase, Promega).
The viral load in the tissues is evaluated 5 weeks after the test by counting the number of copies of viral RNA in the axillary lymphatic ganglia and in the thymus by competitive RT-PCR.
Given that the amplified fragment (amplicon) is located in the intron of the sub-genomic viral RNA, the copies of viral RNA counted in the tissues represent the complete transcripts, which are either intracellular or encapsidated in the extracellular viral particles.

[1] = test system: viral components (SU2 and TM2 peptides, recombinant capsid protein); experiment: Antiviral humoral response after the virulence test (ELISA with viral components); assay type: in vivo; settings: in comparison with the control cats
Procedure: as §1, §2, §3
After testing with the FIV Wo strain, most of the cats show a humoral response with respect to the viral components, as illustrated by the ELISA with the SU2 and TM2 peptides, derived from the external and transmembrane glycoproteins, respectively, and the recombinant capsid protein.

[2] = test system: envelope glycoproteins of the Wo strain; experiment: Immunoprecipitation of envelope glycoproteins by sera (infected PBM cells); assay type: in vivo; settings: PBM cell lysates after acute infection with FIV Wo; group of four cats
Description: (§4) The sera collected on the day of the test (at a dilution of 1/40) are used to immunoprecipitate the envelope glycoproteins derived from the metabolically labelled FL-4 cells and feline mononuclear cells (PBM cells) infected with the FIV Wo strain, as described in G. Pancino et al. (Virology, 1995, 206, 796-806).
Given that the TM3-19 peptide, deduced from the Env sequence of the FIV Wo strain, comprises 4 different residues out of 19, relative to the Petaluma sequence, the capacity to immunoprecipitate sera before the test of the cats immunized with the TM3-19 peptide was tested against the envelope glycoproteins of the Wo strain, obtained from PBM cell lysates after acute infection with the FIV Wo strain.

[3] = test system: envelope glycoproteins of the Petaluma strain; experiment: Immunoprecipitation of envelope glycoproteins by sera (metabolically labelled FL-4 cells); assay type: in vivo, FIV; settings: lysates of chronically infected FL-4 cells; groups of four cats
Description: as §4
The recognition of the envelope glycoproteins is estimated by immunoprecipitation of the biosynthetically labelled envelope glycoprotein with sera collected on the day of the test, as summarized in Table I.

[4] = ELISA, seral dilution 1/25, individual cats

Row | Substance | antibody response with respect to the SU2 peptide (SU2 envelope peptide; 5 weeks after the test) | Binding of the sera to SU2, 3 weeks after the virulence test (SU2 envelope peptide; [4]) | Binding of the sera to SU2, 4 weeks after the virulence test (SU2 envelope peptide; [4]) | Binding of the sera to SU2, 5 weeks after the virulence test (SU2 envelope peptide; [4]) | level of viral RNA in the spleen (FIV Wo isolate) | levels of viral RNA in the axillary lymphatic ganglia (FIV Wo isolate) | development of an antiviral humoral response after the virulence test [1] | cats whose sera precipitate the envelope protein of the Wo strain [2] | cats whose sera immunoprecipitate the envelope glycoproteins of the Petaluma strain [3]
1 | KKGLQQLQEWEDWVGWIGN [TM3-19, 19-amino-acid fragment of the TM3 domain of the FIV Wo Env transmembrane glycoprotein (759-777)] | none of the cats immunized with the TM3-19 peptide developed a detectable antibody response | 0 optical density | 0 optical density | 0 optical density | particularly low in one cat (348) | lower in three cats (346, 348 and 349) | weaker and retarded in 3 cats (346, 348, 349) | only the sera of 2 cats (346, 347) | 
2 | SU2: peptide of the SU2 domain of the FIV surface envelope glycoprotein, SEQ ID NO: 2, used as immunogen (RAISSWKQRNRWEWRPD) |  |  |  |  |  |  |  |  | 3 of the 4 cats (324, 325 and 327)
